Results published in patent US11690837B2, “Methods of improving cell-based therapy” (THE REGENTS OF THE UNIVERSITY OF CALIFORNIA, priority 2014, dated 2023).

Legend:
[1] = molecular target: T1, sEH (Homo sapiens, UniProt P34913); assay: Testing as sEH inhibitors (method not described); assay type: biochemical
T1 sequence (P34913 1-555): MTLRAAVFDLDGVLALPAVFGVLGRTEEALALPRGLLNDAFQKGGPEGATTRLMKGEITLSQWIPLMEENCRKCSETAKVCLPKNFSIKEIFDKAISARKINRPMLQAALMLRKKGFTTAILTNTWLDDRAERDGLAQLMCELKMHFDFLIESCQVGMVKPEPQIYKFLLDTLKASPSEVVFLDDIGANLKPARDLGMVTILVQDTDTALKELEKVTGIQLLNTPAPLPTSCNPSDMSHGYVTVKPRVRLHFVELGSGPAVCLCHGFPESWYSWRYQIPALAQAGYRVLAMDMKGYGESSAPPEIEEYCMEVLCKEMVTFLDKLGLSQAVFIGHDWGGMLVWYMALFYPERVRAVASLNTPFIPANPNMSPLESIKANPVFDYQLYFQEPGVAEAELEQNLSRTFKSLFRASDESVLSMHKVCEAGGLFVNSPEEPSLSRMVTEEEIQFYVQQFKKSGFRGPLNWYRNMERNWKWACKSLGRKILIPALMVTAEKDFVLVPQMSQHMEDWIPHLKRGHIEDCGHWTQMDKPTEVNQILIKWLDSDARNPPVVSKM
Source text: (§1) (Both the 1- and the 2-admamantyl ureas have been tested and have about the same high activity as an inhibitor of sEH. Thus, isomers of adamantyl dodecyl urea are preferred inhibitors. It is further expected that N, N′-dodecyl-cyclohexyl urea (DCU), and other inhibitors of sEH, and particularly dodecanoic acid ester derivatives of urea, are suitable for use in the methods. Preferred inhibitors include:
U.S. Pat. No. 5,955,496 (the '496 patent) also sets forth a number of sEH inhibitors which can be used in the methods. One category of these inhibitors comprises inhibitors that mimic the substrate for the enzyme. The lipid alkoxides (e.g., the 9-methoxide of stearic acid) are an exemplar of this group of inhibitors.

[2] = assay type: in vitro ADME
Source text: as §1, with “include: […]” for “include:”

activity as an inhibitor of sEH [1]: particularly high activity
metabolic stability [2]: metabolically stable
Compound: CCCCCCCCCCCCNC(=O)NC12CC3CC(CC(C3)C1)C2 [ADU, N-Adamantyl-N′-dodecyl urea]
